In PMC9127750, “Structure-based design of CDC42 effector interaction inhibitors for the treatment of cancer” (Cell reports, 2022):
“And” between values parts separate entries of the source, which are not always exact repeats. Equal values may be shown once.

System: WM3248 melanoma cells, 486 antibodies
Experiment: Reverse phase protein arrays (RPPA)
Assay type: cell-based, Human
Excerpt: Pellets were snap frozen in liquid nitrogen and shipped to MD Anderson Cancer Center core RPPA facility for RPPA analysis (Table S5). Three biological replicates for each sample were generated.
Nomenclatures on the RPPA heatmaps: name_of_antibody.species_of_antibody.status_of_antibody. V - antibody validated; C - validation of antibody in progress; Q - antibody nonspecific; E – under evaluation; antibodies raised in M - mouse, G - goat, R - rabbit, or T - rat.

Compound: CN(C)c1cccc(Nc2cc(-c3ccccc3)nc(C3CCNCC3)n2)c1 [ARN22089, N1,N1-dimethyl-N3-(6-phenyl-2-(piperidin-4-yl)pyrimidin-4-yl)benzene-1,3-diamine]
- RPPA DNMT1.R.V (20 uM, single samples): 0.983 and 0.756 and 0.985
- RPPA DRP1.R.V (20 uM, single samples): 0.965
- RPPA DUSP6.R.C (20 uM, single samples): 1.060 and 1.859 and 1.429
- RPPA DYRK1B.R.C (20 uM, single samples): 1.009 and 1.052 and 0.953
- RPPA Dvl3.R.V (20 uM, single samples): 0.950 and 1.123
- RPPA E2F1.R.V (20 uM, single samples): 1.419 and 1.315 and 0.981
- RPPA E.Cadherin.R.V (20 uM, single samples): 0.828 and 1.005
- RPPA EGFR.R.V (20 uM, single samples): 1.031 and 1.102 and 1.106
- RPPA EGFR_pY1068.R.C (20 uM, single samples): 0.990 and 0.986
- RPPA EGFR_pY1173.R.V (20 uM, single samples): 1.027 and 1.077 and 1.112
- RPPA EMA.M.C (20 uM, single samples): 0.905 and 0.939 and 0.944
- RPPA ENY2.M.C (20 uM, single samples): 0.965 and 0.851 and 0.977
- RPPA ER.a.R.V (20 uM, single samples): 0.767 and 0.993 and 1.203
- RPPA ERCC1.R.C (20 uM, single samples): 1.137 and 1.100 and 0.957
- RPPA ERCC5.R.C (20 uM, single samples): 1.157 and 0.901 and 0.984
- RPPA ERRalpha.R.V (20 uM, single samples): 0.962 and 1.097 and 0.968
- RPPA EVI1.R.V (20 uM, single samples): 1.169 and 1.023 and 0.918
- RPPA Elk1_pS383.R.C (20 uM, single samples): 1.006 and 1.163 and 1.131
- RPPA Enolase.1.R.V (20 uM, single samples): 1.058 and 0.770 and 0.988
- RPPA Enolase.2.R.V (20 uM, single samples): 1.052 and 0.967 and 0.953
- RPPA EphA2.R.V (20 uM, single samples): 0.650 and 0.867 and 0.932
- RPPA EphA2_pY588.R.C (20 uM, single samples): 1.102 and 1.013 and 0.933
- RPPA Erk5.R.V (20 uM, single samples): 0.870 and 0.876
- RPPA Ets.1.R.V (20 uM, single samples): 1.428 and 0.989
- RPPA FABP5.R.C (20 uM, single samples): 1.054 and 0.987 and 1.035
- RPPA FAK.R.C (20 uM, single samples): 0.799 and 1.003 and 1.205
- RPPA FAK_pY397.R.V (20 uM, single samples): 0.986 and 1.046 and 0.989
- RPPA FANCD2.R.V (20 uM, single samples): 0.998 and 0.872 and 0.901
- RPPA FASN.R.V (20 uM, single samples): 1.033 and 0.807 and 0.695
- RPPA FGF.basic.R.C (20 uM, single samples): 0.959 and 0.928
- RPPA FN14.R.C (20 uM, single samples): 0.830 and 1.031 and 1.337
- RPPA FOXM1.R.V (20 uM, single samples): 1.401 and 0.852 and 0.917
- RPPA FOXO3.R.V (20 uM, single samples): 1.030 and 0.990
- RPPA FRS2.alpha_pY196.R.V (20 uM, single samples): 0.974 and 1.050 and 1.002
- RPPA FTO.R.V (20 uM, single samples): 1.174 and 0.828 and 0.929
- RPPA Fibronectin.R.V (20 uM, single samples): 0.643 and 1.194 and 1.130
- RPPA FoxO3a_pS318_S321.R.C (20 uM, single samples): 1.008 and 0.941
- RPPA G6PD.R.V (20 uM, single samples): 0.989 and 0.985 and 0.975
- RPPA GATA3.M.V (20 uM, single samples): 1.212 and 0.968
- RPPA GATA6.R.V (20 uM, single samples): 1.033 and 0.956 and 0.952
- RPPA GCLC.R.C (20 uM, single samples): 0.868 and 1.160
- RPPA GCLM.R.V (20 uM, single samples): 1.077 and 0.945 and 0.973
- RPPA GCN5L2.R.V (20 uM, single samples): 0.869 and 0.957
- RPPA GGPS1.M.V (20 uM, single samples): 1.005 and 0.891 and 0.957
- RPPA GRB2.R.V (20 uM, single samples): 0.953 and 0.884 and 1.030
- RPPA GRB7.R.V (20 uM, single samples): 0.848 and 1.110 and 1.171
- RPPA GSK.3B.R.C (20 uM, single samples): 0.916 and 0.817 and 0.970
- RPPA GSK.3a.b.M.V (20 uM, single samples): 1.009 and 0.884 and 0.977
- RPPA GSK.3a.b_pS21_S9.R.V (20 uM, single samples): 0.956 and 1.173 and 1.028
- RPPA Gab2.R.V (20 uM, single samples): 1.465 and 0.881 and 0.921
- RPPA Gli1.R.C (20 uM, single samples): 0.959 and 0.928 and 0.972
- RPPA Gli3.R.C (20 uM, single samples): 1.201
- RPPA Glucocorticoid.Receptor.R.V (20 uM, single samples): 1.195 and 1.220 and 0.975
- RPPA Glutamate.D1.2.R.V (20 uM, single samples): 1.284 and 0.987 and 1.014
- RPPA Glutaminase.R.C (20 uM, single samples): 1.004 and 0.974 and 1.096
- RPPA Granzyme.B.R.V (20 uM, single samples): 1.019 and 1.152 and 1.098
- RPPA Grp75.R.C (20 uM, single samples): 1.682 and 0.883 and 0.952
- RPPA Gys.R.V (20 uM, single samples): 0.810 and 1.025 and 1.174
- RPPA Gys_pS641.R.V (20 uM, single samples): 0.658 and 0.955
- RPPA H2AX_pS140.M.C (20 uM, single samples): 1.144 and 1.344 and 0.957
- RPPA HER2.M.V (20 uM, single samples): 1.022 and 0.960
- RPPA HER2_pY1248.R.V (20 uM, single samples): 1.010 and 1.097
- RPPA HER3.R.V (20 uM, single samples): 1.052 and 0.876 and 0.821
- RPPA HER3_pY1289.R.C (20 uM, single samples): 1.023 and 0.933
- RPPA HES1.R.V (20 uM, single samples): 0.979 and 1.109 and 1.059
- RPPA Heregulin.R.V (20 uM, single samples): 0.854 and 1.034 and 1.150
- RPPA eEF2.R.C (20 uM, single samples): 1.353 and 0.930 and 0.976
- RPPA eEF2K.R.V (20 uM, single samples): 1.420 and 1.250 and 1.117
- RPPA eIF4E.R.V (20 uM, single samples): 0.957 and 1.295 and 1.239
- RPPA eIF4E_pS209.R.V (20 uM, single samples): 0.903 and 1.310
- RPPA eIF4G.R.C (20 uM, single samples): 1.450 and 0.906 and 0.991
- DNMT1.R.V Norm_5 Average (5, average, normalized to 0): 1.028
- DRP1.R.V Norm_5 Average (5, average, normalized to 0): 1.024
- DUSP4.R.V Norm_5 Average (5, average, normalized to 0): 1.106
- DUSP6.R.C Norm_5 Average (5, average, normalized to 0): 1.186
- DYRK1B.R.C Norm_5 Average (5, average, normalized to 0): 0.920
- Dvl3.R.V Norm_5 Average (5, average, normalized to 0): 0.989
- E2F1.R.V Norm_5 Average (5, average, normalized to 0): 0.971
- E.Cadherin.R.V Norm_5 Average (5, average, normalized to 0): 0.851
- EGFR.R.V Norm_5 Average (5, average, normalized to 0): 1.030
- EGFR_pY1068.R.C Norm_5 Average (5, average, normalized to 0): 0.934
- EGFR_pY1173.R.V Norm_5 Average (5, average, normalized to 0): 1.022
